These results are taken from the NIST ThermoML archive (doi:10.1021/je034157t).

± gives the expanded uncertainty stated by the source.

The conditions of this data set: Liquid.

The term vapor or sublimation pressure denotes the equilibrium pressure above the liquid or solid.

For the molecule `F[C@H]([C@@H](F)C(F)(F)C(F)(F)F)C(F)(F)F` (relative stereo) [(R*,R*)-1,1,1,2,2,3,4,5,5,5-decafluoropentane], the “vapor or sublimation pressure” value worked out at 26.69 ± 0.08 kPa (295.82 K); 37.25 ± 0.09 kPa (303.17 K); 40.56 ± 0.09 kPa (305.11 K); 56.54 ± 0.11 kPa (313.05 K); 68.94 ± 0.12 kPa (318.04 K); 84.1 ± 0.13 kPa (323.24 K). The “vapor or sublimation pressure” value (327.95 K) is listed as 99.96 ± 0.14 kPa.

For `F[C@H]([C@H](F)C(F)(F)F)C(F)(F)C(F)(F)F` (relative stereo) [(R*,S*)-1,1,1,2,2,3,4,5,5,5-decafluoropentane], the “vapor or sublimation pressure” value (293.17 K) was 34.49 ± 0.1 kPa; the “vapor or sublimation pressure” value (302.95 K) is 52.41 ± 0.11 kPa; the “vapor or sublimation pressure” value (309.84 K) is given as 68.93 ± 0.13 kPa; the “vapor or sublimation pressure” value (313.03 K) came out at 77.9 ± 0.15 kPa; the “vapor or sublimation pressure” value (319.81 K) is reported as 99.95 ± 0.17 kPa.

With `C1CCOC1` [tetrahydrofuran], the “vapor or sublimation pressure” value is on record as 26.67 ± 0.08 kPa (303.04 K); 26.68 ± 0.08 kPa (303.05 K); 29.09 ± 0.08 kPa (305.11 K); 34.5 ± 0.09 kPa (309.28 K); 40.15 ± 0.09 kPa (313.11 K); 45.51 ± 0.1 kPa (316.36 K). The “vapor or sublimation pressure” value (318.1 K) amounted to 48.62 ± 0.1 kPa.
